Measured values published in US11766470B2, “Manufacture, formulation and dosing of apraglutide” (VectivBio AG, priority 2020, dated 2023).
Square brackets hold non-standard residues; d marks the D form. Peptide text beside a SMILES is read from it. ξ: configuration not given here. Ile(3ξ) = CCC(C)[C@H](N)C(=O)O; Thr(3ξ) = CC(O)[C@H](N)C(=O)O; Nle = CCCC[C@H](N)C(=O)O

Assay: MCP-MOD dose-response analysis of citrulline (week 6) in healthy volunteers (Example 7)
Set-up: species or system human
Conditions: for MCP step, estimate of the difference: citrulline week 6
Excerpt: The MCP-MOD procedure was applied. This statistical methodology consisted of 2 steps: the multiple comparisons step and the modelling step. The first step of the procedure (MCP) is used to test for a significant dose response by assessing pre-specified candidate models. Once a dose response has been established, the second step (MOD) is used to estimate a dose-response curve and estimation of target doses of interest. Five candidate models were specified:
Linear model with maximum effect for the 10 mg dose
Log-linear model with maximum effect for the 10 mg dose
Dose that induces maximum effect (Emax) model with ED50 of 5 mg
Sigmoidal Emax model with ED50 of 1 mg and hill coefficient (HILL) of 2
Sigmoidal Emax model with ED50 of 5 mg and HILL of 5
A subset of the citrulline data was made with the average pre-value and day 35 to 42=week 6 data. The coefficients were implemented in the mixed model analysis of variance with fixed factors treatment, time and treatment by time, random factor subject, and the average prevalue as covariate. The average pre-value was calculated from all pre-values after screening and before dosing.
The following contrasts are calculated within the model:
For all pharmacodynamic endpoints (citrulline, Bristol stool scale and weight), the pre-value has been used as covariate. The average pre-value was calculated from all pre-values after screening and before dosing, except for the Bristol stool scale, where the screening value was also used to calculate the average baseline. The average pre-value of citrulline was also used as covariate in the MCP-MOD, except in the Sigmoid Emax model. This was addressed by subtracting the pre-value times the slope of the linear model of the MCP part from the values of week 6.

CCCC[C@H](NC(=O)[C@H](CCC(=O)O)NC(=O)[C@H](CC(=O)O)NC(=O)[C@H](CO)NC(=O)[C@H](Cc1ccccc1)NC(=O)[C@H](CO)NC(=O)CNC(=O)[C@H](CC(=O)O)NC(=O)CNC(=O)[C@@H](N)Cc1c[nH]cn1)C(=O)N[C@H](Cc1ccccc1)C(=O)N[C@H](C(=O)N[C@H](C(=O)N[C@@H](CC(C)C)C(=O)N[C@@H](CC(=O)O)C(=O)N[C@@H](CC(C)C)C(=O)N[C@@H](CC(C)C)C(=O)N[C@@H](C)C(=O)N[C@@H](C)C(=O)N[C@@H](CCCNC(=N)N)C(=O)N[C@@H](CC(=O)O)C(=O)N[C@@H](Cc1ccccc1)C(=O)N[C@H](C(=O)N[C@@H](CC(N)=O)C(=O)N[C@@H](Cc1c[nH]c2ccccc12)C(=O)N[C@@H](CC(C)C)C(=O)N[C@H](C(=O)N[C@@H](CCC(N)=O)C(=O)N[C@H](C(=O)N[C@@H](CCCCN)C(=O)N[C@H](C(=O)N[C@H](C(=O)N[C@@H](CC(=O)O)C(N)=O)C(C)O)C(C)CC)C(C)O)C(C)CC)C(C)CC)C(C)CC)C(C)O (stereo partly drawn) [apraglutide, L-histidyl-glycyl-L-aspartyl-glycyl-L-seryl-L-phenylalanyl-L-seryl-L-aspartyl-L-glutamyl-L-norleucyl-D-phenylalanyl-L-threonyl-Lisoleucyl-L-leucyl-L-aspartyl-L-leucyl-L-leucyl-L-alanyl-L-alanyl-L-arginyl-L-aspartyl-L-phenylalanyl-L-isoleucyl-L-asparaginyl-Ltryptophanyl-L-leucyl-L-isoleucyl-L-glutaminyl-L-threonyl-L-lysyl-L-isoleucyl-L-threonyl-Laspartic acid amide] (H-HGDGSFSDE[Nle][dF][Thr(3ξ)][Ile(3ξ)]LDLLAARDF[Ile(3ξ)]NWL[Ile(3ξ)]Q[Thr(3ξ)]K[Ile(3ξ)][Thr(3ξ)]D-NH2)
Predicted citrulline change from placebo effect for dose of 1 mg (Emax model): 0.8535 µg/mL | Predicted citrulline change from placebo effect for dose of 5 mg (Emax model): 2.2442 µg/mL | Predicted citrulline change from placebo effect for dose of 10 mg (Emax model): 2.8182 µg/mL | Predicted dose for citrulline change from placebo of 1 μg/mL (Emax model): 1.2333 mg | Predicted dose for citrulline change from placebo of 2 μg/mL (Emax model): 3.8471 mg | Predicted dose for citrulline change from placebo of 3 μg/mL (Emax model): 13.1053 mg | Predicted citrulline change from placebo effect for dose of 1 mg (Log-linear model): 0.8712 µg/mL | Predicted citrulline change from placebo effect for dose of 5 mg (Log-linear model): 2.1652 µg/mL | Predicted citrulline change from placebo effect for dose of 10 mg (Log-linear model): 2.8604 µg/mL | Predicted dose for citrulline change from placebo of 1 μg/mL (Log-linear model): 1.2249 mg | Predicted dose for citrulline change from placebo of 2 μg/mL (Log-linear model): 4.2011 mg | Predicted dose for citrulline change from placebo of 3 μg/mL (Log-linear model): 11.4325 mg | Predicted citrulline change from placebo effect for dose of 1 mg (Sigmoid Emax model): 0.7125 µg/mL | Predicted citrulline change from placebo effect for dose of 5 mg (Sigmoid Emax model): 2.3327 µg/mL | Predicted citrulline change from placebo effect for dose of 10 mg (Sigmoid Emax model): 2.6946 µg/mL | Predicted dose for citrulline change from placebo of 1 μg/mL (Sigmoid Emax model): 1.3606 mg | Predicted dose for citrulline change from placebo of 2 μg/mL (Sigmoid Emax model): 3.4042 mg | Predicted dose for citrulline change from placebo of 2.5 μg/mL (Sigmoid Emax model): 6.4619 mg | MCP step, estimate of the difference (candidate model Emax with ED50 = 5 mg): 2.2150 | MCP step, estimate of the difference (candidate model Linear): 2.0781 | MCP step, estimate of the difference (candidate model Log-linear): 2.2125 | MCP step, estimate of the difference (candidate model Sigmoid Emax with ED50 = 1 mg and H = 2): 2.1663 | MCP step, estimate of the difference (candidate model Sigmoid Emax with ED50 = 5 mg and H = 5): 2.0713
